Experimental data from patent publication US20240279204A1, “NOVEL DIPHENAZINE COMPOUND, AND USE THEREOF FOR PREVENTING OR TREATING CANCER OR NEUROINFLAMMATORY DISEASES” (KOREA INSTITUTE OF OCEAN SCIENCE & TECHNOLOGY, priority 2021, published 2024).
Like-named read-outs stand apart in the source and are kept apart here.

Columns and labels:
ACHN (kidney) = experiment: SRB cytotoxicity assay, ACHN; format: cell-based, human; conditions: 48 hours
Procedure: (§1) A cytotoxicity test was evaluated using sulforhodamine B (SRB) assay on six human cancer cell lines. Human cancer cell lines, ACHN (kidney), NCI-H23 (lung), PC-3 (prostate), NUGC-3 (stomach), MDA-MB-231 (breast), and HCT-15 (colon) were purchased from American Type Culture Collection (ATCC). Cells were cultured in a RPMI 1640 medium added with 10% fetal bovine serum (FBS) at 37° C. in a 5% CO2 incubator. The cells (8×10^3 cells/well) were dispensed into a 96-well plate, cultured for one day, and then treated with Compounds 1-8 dissolved in 0.1% DMSO, (R)-(6-(1-((2-aminobenzoyl)oxy)ethyl)phenazine-1-carboxylic acid as Compound 9, and adriamycin as a positive control group. The cells were cultured for 48 hours, fixed with 50% trichloroacetic acid ([…]) and stained with 0.4% surfohodamine B dissolved in 1% acetic acid. Non-stained cells were removed by washing with 1% acetic acid, and cells bound to a protein were extracted with 10 mM Tris base (pH 10.5) to measure the optical density. Absorbance was measured at 540 nm using a microplate reader, and GI50 values were calculated using GraphPad Prism 4.0.

NCI-H23 (lung) = experiment: SRB cytotoxicity assay, NCI-H23; format: cell-based, human
Procedure: as §1

PC-3 (prostate) = experiment: SRB cytotoxicity assay, PC-3; format: cell-based, human; conditions: 48 hours
Procedure: as §1

NUGC-3 (stomach) = experiment: SRB cytotoxicity assay, NUGC-3; format: cell-based, human; conditions: for GI50: SRB assay, 48 hours
Procedure: as §1

MDA-MB-231 (breast) = experiment: SRB cytotoxicity assay, MDA-MB-231; format: cell-based, human
Procedure: as §1

HCT-15 (colon) = experiment: SRB cytotoxicity assay, HCT-15; format: cell-based, human
Procedure: as §1

[1] = test system: LPS-induced BV-2 microglia; experiment: NO generation inhibition in LPS-induced BV-2 microglia (Griess reagent); format: cell-based; conditions: compound 1 hour then LPS 200 ng/mL for 24 hours, nitrite by Griess reagent, read-out: IC50 (μM), NO generation inhibitory activity by activated microglia
Procedure: (§2) NO generation to confirm anti-brain neuroinflammatory activity was evaluated by measuring a nitrite concentration in the medium using a Griess reagent, and the cell viability was evaluated using MTT assay. Briefly, BV-2 microglia were cultured in a Dulbecco's modified Eagle's medium (DMEM) supplemented with 5% heat-inactivated FBS and 50 µg/mL of penicillin-streptomycin in a 5% CO2 incubator at 37° C. A 96-well plate dispensed with pre-cultured cells (2.5×10^4 cells/mL) was treated with compounds at various concentrations (10, 20, 50, and 100 μM) for 1 hour, and treated with LPS (200 ng/mL) and cultured for 24 hours. The supernatant was mixed with a Griess reagent and cultured at room temperature for 10 minutes. The nitrite concentration was determined using a sodium nitrite standard solution prepared in a cell culture medium. Absorbance was measured at a wavelength of 540 nm with a microplate reader. To evaluate the cell viability, the 96-well plate dispensed with cells (2.5×10^4 cells/mL) was treated with compounds at various concentrations (10, 20, 50, and 100 μM) for 1 hour, and treated with LPS (200 ng/mL) and cultured for 24 hours. An MTT solution (0.5 mg/mL) was added to each well and cultured at 37° C. for 4 hours. The supernatant was removed, and the formed formazan crystals were dissolved in DMSO. The absorbance was measured at 550 nm using a microplate reader. To determine the IC50 value of Compound 6, NO generation and MTT assay were performed in the same manner as described above, only with different concentrations (0.25, 0.5, and 1 μM) (Table 4). The experiment was repeated 3 times.

BV-2 microglia = experiment: Cell viability of BV-2 microglia (MTT assay); format: cell-based; conditions: LPS 200 ng/mL, 24 hours
Procedure: as §2, with “To determine the IC50 value of Compound 6, NO generation and MTT assay were performed in the same manner as described above, only with different concentrations (0.25, 0.5, and 1 μM) (Table 4). The experiment was repeated 3 times.” left out

[2] = Homo sapiens, NCI-H23, 48 hours
[3] = Homo sapiens, NUGC-3, read-out: GI50, NUGC-3
[4] = Homo sapiens, MDA-MB-231, 48 hours

Compound	IC50 ([1]; Mus musculus) [µM]	GI50 (ACHN (kidney); Homo sapiens, ACHN) [µM]	GI50 (NCI-H23 (lung); [2]) [µM]	GI50 (PC-3 (prostate); Homo sapiens) [µM]	GI50 (NUGC-3 (stomach); [3]) [µM]	GI50 (MDA-MB-231 (breast); [4]) [µM]	GI50 (HCT-15 (colon); Homo sapiens, HCT-15, 48 hours) [µM]	cytotoxicity in cell viability test (BV-2 microglia)	GI50 (NUGC-3 (stomach); Homo sapiens, NUGC-3, read-out: GI50 value, gastric cancer cells NUGC-3) [µM]	cytotoxicity stronger than Adriamycin, NUGC-3 (NUGC-3 (stomach); ratio of GI50 versus Adriamycin) [times]	IC50 [1] [µM]	GI50 (ACHN (kidney)) [µM]	GI50 (NCI-H23 (lung); 48 hours) [µM]	GI50 (PC-3 (prostate)) [µM]	GI50 (NUGC-3 (stomach); read-out: GI50, NUGC-3) [µM]	GI50 (MDA-MB-231 (breast); 48 hours) [µM]	GI50 (HCT-15 (colon); 48 hours) [µM]
COc1cccc2c1C(=O)c1c(O)c3c(c(O)c1C2=O)C[C@@](O)(C(=O)CO)C[C@@H]3O[C@H]1C[C@H](N)[C@H](O)[C@H](C)O1 [ADR, Adriamycin, reference compound]		0.17	0.16	0.16	0.15	0.15	0.17										
CC(=O)c1cccc2nc3c(C(=O)O[C@H](C)c4cccc5nc6c(C(=O)O)cccc6nc45)cccc3nc12 [Compound 7, (R)-6-(1-((6-acetylphenazine-1-carbonyl)oxy)ethyl)phenazine-1-carboxylic acid]		0.0717	0.0426	0.0465	0.0349	0.0523	0.0601										
C[C@@H](O)c1cccc2nc3c(C(=O)O)cccc3nc12 [Compound 8, (R)-Saphenic acid]											16.3	> 10	> 10	> 10	> 10	> 10	> 10
C[C@@H](OC(=O)c1ccccc1N)c1cccc2nc3c(C(=O)O)cccc3nc12 [Compound 9]											23.5	> 10	> 10	> 10	> 10	> 10	> 10

Now from value to compound, other results behind:

IC50 ([1]; Mus musculus) [µM]	Compound	GI50 (ACHN (kidney); Homo sapiens, ACHN) [µM]	GI50 (NCI-H23 (lung); [2]) [µM]	GI50 (PC-3 (prostate); Homo sapiens) [µM]	GI50 (NUGC-3 (stomach); [3]) [µM]	GI50 (MDA-MB-231 (breast); [4]) [µM]	GI50 (HCT-15 (colon); Homo sapiens, HCT-15, 48 hours) [µM]	cytotoxicity in cell viability test (BV-2 microglia)	GI50 (NUGC-3 (stomach); Homo sapiens, NUGC-3, read-out: GI50 value, gastric cancer cells NUGC-3) [µM]	cytotoxicity stronger than Adriamycin, NUGC-3 (NUGC-3 (stomach); ratio of GI50 versus Adriamycin) [times]	IC50 [1] [µM]	GI50 (ACHN (kidney)) [µM]	GI50 (NCI-H23 (lung); 48 hours) [µM]	GI50 (PC-3 (prostate)) [µM]	GI50 (NUGC-3 (stomach); read-out: GI50, NUGC-3) [µM]	GI50 (MDA-MB-231 (breast); 48 hours) [µM]	GI50 (HCT-15 (colon); 48 hours) [µM]
166	C[C@H](c1cccc2nc3c(C(=O)O)cccc3nc12)c1ccc(C(=O)O)c2nc3cccc([C@@H](C)O)c3nc12 [Compound 1, 4-((R)-1-(6-carboxyphenazin-1-yl)ethyl)-6-((R)-1-hydroxyethyl)phenazine-1-carboxylic acid]	> 10	> 10	> 10	> 10	> 10	> 10										
90.2	C[C@@H](c1cccc2nc3c(C(=O)O)cccc3nc12)c1ccc(C(=O)O)c2nc3cccc([C@@H](C)O)c3nc12 [Compound 2, 4-((S)-1-(6-carboxyphenazin-1-yl)ethyl)-6-((R)-1-hydroxyethyl)phenazine-1-carboxylic acid]	> 10	> 10	> 10	> 10	> 10	> 10										
34.7	CC(=O)c1cccc2nc3c(C(=O)O)ccc([C@H](C)c4cccc5nc6c(C(=O)O)cccc6nc45)c3nc12 [Compound 3, (R)-6-acetyl-4-(1-(6-carboxyphenazin-1-yl)ethyl)phenazine-1-carboxylic acid]	> 10	> 10	> 10	> 10	> 10	> 10										
126	C[C@@H](c1cc(C(=O)O)c2nc3cccc([C@@H](C)O)c3nc2c1)c1cccc2nc3c(C(=O)O)cccc3nc12 [Compound 4, 3-((S)-1-(6-carboxyphenazin-1-yl)ethyl)-6-((R)-1-hydroxyethyl)phenazine-1-carboxylic acid]	> 10	> 10	> 10	> 10	> 10	> 10										
27.4	C[C@H](c1cc([C@@H](C)O)c2nc3cccc(C(=O)O)c3nc2c1)c1cccc2nc3c(C(=O)O)cccc3nc12 [Compound 5, 8-((R)-1-(6-carboxyphenazin-1-yl)ethyl)-6-((R)-1-hydroxyethyl)phenazine-1-carboxylic acid]	> 10	> 10	> 10	> 10	> 10	> 10										
0.3	C[C@@H](O)c1cccc2nc3c(C(=O)O[C@H](C)c4cccc5nc6c(C(=O)O)cccc6nc45)cccc3nc12 [Compound 6, 6-((R)-1-((6-((R)-1-hydroxyethyl)phenazine-1-carbonyl)oxy)ethyl)phenazine-1-carboxylic acid]	0.0135	0.0096	0.0096	0.0077	0.0096	0.0096	strong cytotoxicity up to a concentration of 1 μM	0.0077	19							
